As a reminder, the logP is the decadic logarithm of the partition coefficient of the neutral form, usually between octanol and water. The low end stands for a more hydrophilic compound, the high end for a more lipophilic compound. `CCN1C(=O)C(=O)c2cc(OC)c(OC)cc2C1=O`: the logP stood at 1.31.

`CCCCN1C(=O)C(=O)c2ccccc2C1=O` returned a logP of 2.18.

`CCN1C(=O)C(=O)c2c(C#N)cccc2C1=O` showed a logP of 0.41.

For the compound `CCN(CC)C(=O)c1cccc2c1C(=O)C(=O)N(CC)C2=O`, the logP was 0.78.

`CCN1C(=O)C(=O)c2cccc(OC)c2C1=O` came in with a logP of 0.94.

In turn, `CCN1C(=O)C(=O)c2c(OC)cccc2C1=O` gave a logP of 0.9.

As for `CCCN1C(=O)C(=O)c2ccccc2C1=O`, the logP is 1.6.

For `CCN1C(=O)C(=O)c2ccccc2C1=O`, the logP stood at 1.13.

Compound `CCN1C(=O)C(=O)c2ccc(OC)cc2C1=O` yielded a logP of 1.49.

Turning to `CCNC(=O)c1cccc2c1C(=O)C(=O)N(CC)C2=O`, the logP is 0.3.

As to `CCN1C(=O)C(=O)c2c(Cl)cccc2C1=O`, the logP worked out at 1.43.

In the case of `CCN1C(=O)C(=O)c2c(cccc2[N+](=O)[O-])C1=O`, the logP was determined as 0.82.

`CCOC(=O)c1cccc2c1C(=O)C(=O)N(CC)C2=O` came in with a logP of 1.31.

Consider `CCC(C)N1C(=O)C(=O)c2ccccc2C1=O` (configuration not stated), for which the logP turned out to be 2.15.

In the case of `CCN1C(=O)C(=O)c2c(C(N)=O)cccc2C1=O`, the log partition coefficient (logP) was -0.5.

In turn, `CN1C(=O)C(=O)c2ccccc2C1=O` had a logP of 0.6.

On to `CCN1C(=O)C(=O)c2cc3ccccc3cc2C1=O`, for which the logP is 2.46.

Consider `CC(C)N1C(=O)C(=O)c2ccccc2C1=O`, for which the logP was 1.6.

`O=C1C(=O)N(c2ccccc2)C(=O)c2ccccc21`: the logP came to 1.14.

`CCN1C(=O)C(=O)c2c(OC)cc(OC)cc2C1=O` registered a logP of 1.23.

The compound `CCN1C(=O)C(=O)c2ccc(Cl)cc2C1=O` gave a logP of 1.79.

In turn, `CC(C)CN1C(=O)C(=O)c2ccccc2C1=O` registered a logP of 2.08.

Values taken from the SangsterLogP compilation.
